Assay results reported in US20110054188A1, “NEAR INFRARED FLUORESCENT IMAGING AGENT” (FUJIFILM Corporation, priority 2009, published 2011).

Experiments:
Assay type in all cases: in vitro ADME
Settings in all cases: 5 μM, equilibrium dialysis 4 hours at 37° C.
plasma protein [1] = experiment: Plasma protein binding rate test by equilibrium dialysis method, human plasma
Protocol: (§1) Plasma protein binding rates of the compounds were determined by equilibrium dialysis method (W. Lindner et al, J. Chromatography, 1996, 677, 1-28). Each test compound was dissolved in distilled water at concentration of 200 μM. The solution was added to the plasma of mouse, dog, rabbit, monkey and human respectively, at the amount to obtain the final concentration of 5 μM. This solution (300 μL) and PBS solution (500 μL) were added to each dialysis cell of equilibrium dialysis unit RED device (Pierce Biotechnology), and the cells were shaken at 100 rpm at 37° C. After 4 hours, samples of plasma and the buffer were collected, and the fluorescence intensity of each was measured by EnVision ([…]). After the concentrations were calculated from a calibration curve, the concentrations (%) of free test compound in plasma were determined.

plasma protein [2] = experiment: Plasma protein binding rate test by equilibrium dialysis method, dog plasma
Protocol: as §1

plasma protein [3] = experiment: Plasma protein binding rate test by equilibrium dialysis method, monkey plasma
Protocol: as §1

plasma protein [4] = experiment: Plasma protein binding rate test by equilibrium dialysis method, mouse plasma
Protocol: as §1

plasma protein [5] = experiment: Plasma protein binding rate test by equilibrium dialysis method, rabbit plasma
Protocol: as §1

SMILES | Plasma protein binding rate (%) human (plasma protein [1]) [%] | Plasma protein binding rate (%) dog (plasma protein [2]) [%] | Plasma protein binding rate (%) monkey (plasma protein [3]) [%] | Plasma protein binding rate (%) mouse (plasma protein [4]) [%] | Plasma protein binding rate (%) rabbit (plasma protein [5]) [%]
CC1(C)C(/C=C/C=C/C=C/C=C2\N(CC(=O)O)c3ccc(S(=O)(=O)[O-])cc3C2(C)C)=[N+](CC(=O)O)c2ccc(S(=O)(=O)[O-])cc21.[Na+] [Compound 4] | 74 | 50 | 71 | 57 | 67
CC1(C)C(/C=C/C=C/C=C/C=C2/N(CCCCC(=O)O)c3ccc(S(=O)(=O)O)cc3C2(C)C)=[N+](CCCCC(=O)O)c2ccc(S(=O)(=O)O)cc21.[Na+].[Na+] [Compound 6] | 88 | 59 | 79 | – | 88
CC1(C)C(=CC=CC=CC=CC2=[N+](CCP(=O)([O-])[O-])c3ccc(S(=O)(=O)[O-])cc3C2(C)C)N(CCP(=O)([O-])[O-])c2ccc(S(=O)(=O)[O-])cc21.[Na+].[Na+].[Na+].[Na+].[Na+] [Compound 9] | 56 | 50 | 67 | 46 | 61
CC1(C)C(/C=C/C=C/C=C/C=C2/N(CCCP(=O)(O)O)c3ccc(S(=O)(=O)O)cc3C2(C)C)=[N+](CCCP(=O)(O)O)c2ccc(S(=O)(=O)O)cc21.[Na+].[Na+].[Na+].[Na+].[Na+].[Na+] [Compound 10] | – | 52 | – | 53 | –
CC1(C)C(/C=C/C=C(/C=C/C=C2\N(CCP(=O)([O-])[O-])c3ccc(S(=O)(=O)[O-])cc3C2(C)C)c2ccccc2)=[N+](CCP(=O)([O-])[O-])c2ccc(S(=O)(=O)[O-])cc21.[Na+].[Na+].[Na+].[Na+].[Na+] [Compound 11] | 98 | 83 | 97 | 91 | 98
CC1(C)C(/C=C/C=C(/C=C/C=C2\N(CCCP(=O)([O-])[O-])c3ccc(S(=O)(=O)[O-])cc3C2(C)C)c2ccccc2)=[N+](CCCP(=O)([O-])[O-])c2ccc(S(=O)(=O)[O-])cc21.[Na+].[Na+].[Na+].[Na+].[Na+] [Compound 12] | 95 | 82 | 93 | 91 | 95
CC1(C)C(/C=C/C=C/C=C/C=C2/N(CCC(=O)[O-])c3ccc(P(=O)([O-])[O-])cc3C2(C)C)=[N+](CCC(=O)[O-])c2ccc(P(=O)([O-])[O-])cc21.[Na+].[Na+].[Na+].[Na+].[Na+] [Compound 13] | 89 | – | 90 | – | 87
CC1(C)C(/C=C/C=C/C=C/C=C2/N(CCS(=O)(=O)[O-])c3ccc(P(=O)([O-])[O-])cc3C2(C)C)=[N+](CCS(=O)(=O)[O-])c2ccc(P(=O)([O-])[O-])cc21.[Na+].[Na+].[Na+].[Na+].[Na+] [Compound 14] | 94 | 71 | 95 | – | 87
CC1(C)C(/C=C/C=C(/C=C/C=C2\N(CCS(=O)(=O)[O-])c3ccc(P(=O)([O-])[O-])cc3C2(C)C)c2ccccc2)=[N+](CCS(=O)(=O)[O-])c2ccc(P(=O)([O-])[O-])cc21.[Na+].[Na+].[Na+].[Na+].[Na+] [Compound 15] | 93 | – | 96 | – | 94
CC1(C)C(/C=C/C=C(/C=C/C=C2\N(CCC(=O)[O-])c3ccc(P(=O)([O-])[O-])cc3C2(C)C)c2ccccc2)=[N+](CCC(=O)[O-])c2ccc(P(=O)([O-])[O-])cc21.[Na+].[Na+].[Na+].[Na+].[Na+] [Compound 16] | 95 | 77 | 92 | 77 | 95
CC(/C=C/C=C1\N(CCC(=O)[O-])c2ccc(P(=O)([O-])[O-])cc2C1(C)C)=C\C=C\C1=[N+](CCC(=O)[O-])c2ccc(P(=O)([O-])[O-])cc2C1(C)C.[Na+].[Na+].[Na+].[Na+].[Na+] [Compound 17] | 93 | 59 | 91 | 63 | 79
CC(/C=C/C=C1\N(CCS(=O)(=O)[O-])c2ccc(P(=O)([O-])[O-])cc2C1(C)C)=C\C=C\C1=[N+](CCS(=O)(=O)[O-])c2ccc(P(=O)([O-])[O-])cc2C1(C)C.[Na+].[Na+].[Na+].[Na+].[Na+] [Compound 18] | 96 | – | 95 | 59 | 82
CC1(C)C(/C=C/C=C/C=C/C=C2\N(CCS(=O)(=O)[O-])c3ccc(S(=O)(=O)[O-])cc3C2(C)C)=[N+](CCS(=O)(=O)[O-])c2ccc(S(=O)(=O)[O-])cc21.[Na+].[Na+].[Na+] [Compound A, reference compound] | 82 | 29 | 87 | 27 | 79
CC(/C=C/C=C1\N(CCS(=O)(=O)[O-])c2ccc(S(=O)(=O)[O-])cc2C1(C)C)=C\C=C\C1=[N+](CCS(=O)(=O)[O-])c2ccc(S(=O)(=O)[O-])cc2C1(C)C.[Na+].[Na+].[Na+] [Compound B, reference compound] | 92 | – | 93 | – | 88
